Tests used:
BALBc mice = assay: radial arm maze, learning and memory; format: in vivo, mouse; conditions: intra-peritoneal 2.5 ng, 250 ng, 25 μg/kg
Text: The radial arm maze is one of the most commonly used methods for testing spatial learning and memory in rodents. Developed by Olton and co-workers (Olton, D. S., Samuelson, R. J. (1976) J. Experimental Psychology, 2: 97-115), the maze provides the simultaneous choice of several alternative paths for the test subject. Animals must learn which locations provide food (place learning) using visuospatial cues. Animal care. Male BALBc mice weighing 21-23 gm were housed individually in a normal 12:12 light-dark cycle (light on at 0600 hr) and provide food and water ad libitum. The method described below was reported by Crusio et al., (1987) Brain Research, 425: 182-185. The radial arm maze consisted of a central platform and eight arms made of transparent Plexiglas. The central part measured 22 cm in diameter. The closed arms were 25 cm long, 6 cm high and 6 cm wide. Several fresh food pellets were deposited beyond the end of each arm behind a perforated wall. This arrangement served to prevent the animals from selecting a baited arm by smelling the presence or absence of a reward. […] Entry to an arm was counted when the mouse reached the perforated wall. […] The number of errors was recorded for each day of training. […] Dose response effects were assessed by means of a repeated measured two-way ANOVA followed by Bonferroni's post hoc test.

[1] = test system: extracellular neurotransmitter levels in the area of the nucleus accumbens; assay: microdialysis of nucleus accumbens, electrochemical detection of metabolites; format: in vivo, Sprague Dawley rats; conditions: rats, intra-peritoneal 10 ng to 100 μg/kg, dialysate 15-75 minutes post-treatment
Experimental: To test this hypothesis, extracellular neurotransmitter levels in the area of the nucleus accumbens were assessed with microdialysis following Δ^3-cefazolin sulfoxide treatment. The accumbens is part of the limbic forebrain best know for its association with the pathophysiology of schizophrenia, conditioned reinforcement and drug addiction but also thought to be involved in sensitization to early life trauma leading to the anxiety disorder PTSD or post traumatic stress disorder (Charney and Bremner (1999) The neurobiology of anxiety disorder. In: NEUROBIOLOGY OF MENTAL ILLNESS (Cahrney, D S, et al eds.), Oxford University Press, New York, pgs 494-517).
Method. Twenty-four male Sprague Dawley rats were anesthetized with sodium pentobarbital (50 mg/kg) and implanted with a unilateral microdialysis guide cannula aimed at the nucleus accumbens. Animals were divided into six groups of four animals each and treated with a range of cefazolin doses (saline vehicle, 10 ng, 100 ng, 1 μg, 10 μg, 100 μg/kg) (FIGS. 6a-c). Two days after recovery from surgery a microdialysis probe (2 mm) was lowered to the area and connected to an infusion pump through Tygon tubing. The dialysate was artificial CSF at pH 7.4 delivered at a flow rate of 1.8 μl/min. The first 30 minutes of dialysate was discarded. Thereafter, samples were collected at 15 minute intervals 45 minutes prior to and 75 minutes following intra-peritoneal administration of Δ^3-cefazolin sulfoxide. Samples were collected into microfuge tubes containing 5 μl of 0.16 N perchloric acid to stabilize catecholamines. At the end of the study, animals were sacrificed and the brains prepared for histology to verify the site of the microdialysis probe.
The levels of dopamine metabolites DOPAC (FIG. 6a) and HVA (FIG. 6b) and serotonin metabolite HIAA (FIG. 6c) were assessed by electrochemical detection. […] Measures from each of the four remaining samples collected between 15-75 minutes post-treatment were analyzed. […] Mean values were analyzed with a one-way ANOVA followed by Bonferroni's post hoc test.

golden hamsters = conditions: King et al. 2001; effective anxiolytics at doses of 1 μg/kg and above; cited from earlier work
Wistar rats [2] = conditions: rat, literature validation of the method; cited from earlier work
[3] = test system: Syrian golden hamsters (Mesocricetus auratus); conditions: in vivo, po
Text: Method. […] Ninety min after oral gavage an intruder was placed into the home cage and the resident scored for offensive aggression. Following aggression testing, animals were screened for motor activity in an open field paradigm and sexual motivation (FIGS. 4a-b).

Wistar rats [4] = assay: elevated plus-maze; format: in vivo, rat
Text: The elevated plus-maze was developed for the assessment of anxiolytic and anxiogenic drug effects in the rat (Pellow et al., (1985) Journal of Neuroscience Methods 14: 149-167). The method has been validated behaviorally, physiologically, and pharmacologically. The plus-maze has two open arms and two enclosed arms. […] Conversely, anxiogenic compounds such as yohimbin or amphetamines reduce open arm entries and time spent in the open arms.
Method. Male Wistar rats weighing 250-300 g were group housed in a normal 12:12 light-dark cycle light on at 0800 hour and provided food and water ad libitum. The plus-maze consisted of two open arms, 50×10 cm, and two enclosed arms 50×10×40 cm with an open roof, arranged such that the two open arms were opposite to each other. The maze was elevated to a height of 50 cm. Four groups of five animals each were tested in the plus-maze 90 minutes following oral gavage of either vehicle, or 100 ng/kg, 10 μg/kg, or 1 mg/kg of delta-2-cefazolin-1-sulfoxide (Δ^2-cefazolin sulfoxide). At the start of the experiment the animal was place in the center of the plus maze facing the closed arm. Over a 3 minute observation period, animals were scored for the latency to enter the closed arm, time spent in the closed arm, and the number of open arm entries following the first occupation of the closed arm.

[5] = test system: Syrian golden hamsters (Mesocricetus auratus); assay: resident/intruder model of offensive aggression (serenic activity); format: in vivo
Text: Agonistic behavior can be classified as either offensive or defensive aggression (Blanchard, R. J., Blanchard, D. C. (1977) Physiology and Behavior, 1, 197-224; Adams, D. B. (1979) The Behavioral Brain Sciences, 2, 201-241; Albert, D. J. and Walsh, M. L. (1984) Neuroscience and Behavioral Reviews, 8, 5-24). Offensive aggression is characterized by the aggressor initiating an attack on an opponent, while defensive aggression lacks active approach. Both types of aggression have their own unique neurobehavioral systems. The stimuli that elicit offensive and defense attacks are different, as are the sequences of behaviors that accompany each agonistic response. […] Offensive aggression is easily studied using male golden hamsters tested in a resident/intruder paradigm, an established model of offensive aggression ([…]. (1988) Physiology and Behavior, 44, 235-239). Placing an unfamiliar male hamster into the home cage of another male hamster elicits a well-defined sequence of agonistic behaviors from the resident that includes offensive aggression. Animal Care. Male Syrian golden hamsters (Mesocricetus auratus) (140-150 g) obtained from Harlan Sprague-Dawley Laboratories (Indianapolis, Ind.) were housed individually in Plexiglas cages (24 cm×24 cm×20 cm), maintained on a reverse light:dark cycle ([…]:10D; lights on at 19:00 hr) and provided food and water ad libitum. Animals were acclimated to the reverse light:dark cycle for at least two weeks before testing. All behavioral tests were conducted during the dark phase of the circadian cycle. Behavioral Measures and Analysis. Hamsters are nocturnal and as such behavioral tests were performed during the first four hours of the dark phase under dim red illumination. The resident was scored for offensive aggression, e.g., latency to bite the intruder, total contact time with the intruder, the total number of bites, and flank marking, over a 10 minute test period ([…]. (1988) Physiology and Behavior, 44, 235-239). Flank marking is a form of olfactory communication in which a hamster arches its back and rubs pheromone producing flank glands against objects in the environment (Johnston, R. E. (1985) Communication, In: THE HAMSTER REPRODUCTION AND BEHAVIOR. Ed Siegel, H. I. Plenum Press, New York, pp 121-154). […] Parametric data, i.e., latencies and contact time, were analyzed with a one-way ANOVA followed by Newman-Keuls post hoc tests. Non-parametric data, i.e., number of bites and flank marks, were analyzed with Kruskal-Wallis tests followed by Mann-Whitney U tests to determine differences between groups. Method. […] Ninety min after oral gavage an intruder was placed into the home cage and the resident scored for offensive aggression. Following aggression testing, animals were screened for motor activity in an open field paradigm and sexual motivation (FIGS. 4a-b).

Cc1nnc(SCC2=C(C(=O)O)N3C(=O)[C@@H](NC(=O)Cn4cnnn4)[C@H]3[S+]([O-])C2)s1 (some centres unmarked) [Δ^3-cefazolin sulfoxide, cefazolin-1-sulfoxide]
number of errors (BALBc mice; day five, vs vehicle): no significant difference
number of errors (BALBc mice; testing days three and four, vs vehicle control (*p<0.05, **p<0.01) (FIG. 5)): significantly reduced
DOPAC levels (dopamine metabolite) ([1]; pg/15 μl (FIG. 6a)): significant (*p<0.05; **p<0.01) dose-dependent increase
HVA levels (dopamine metabolite) ([1]; pg/15 μl (FIG. 6b)): significant (*p<0.05; **p<0.01) dose-dependent increase
HIAA levels (serotonin metabolite) ([1]; pg/15 μl (FIG. 6c)): significant (*p<0.05; **p<0.01) dose-dependent increase

O=C1CC2(CCCC2)CC(=O)N1CCCCN1CCN(c2ncccn2)CC1 [buspirone]
effect on seed finding (golden hamsters): dramatically reduce

CNCCC(Oc1ccc(C(F)(F)F)cc1)c1ccccc1 (centres unmarked) [fluoxetine]
effect on seed finding (golden hamsters): dramatically reduce

COC(=O)[C@@H]1[C@H]2C[C@H]3c4[nH]c5ccccc5c4CCN3C[C@@H]2CC[C@@H]1O [yohimbine]
effect on seed finding (golden hamsters): ineffective
number of entries into the open arms (Wistar rats [2]): reduce
percentage of time spent in the open arms (Wistar rats [2]): reduce

delta-2-cefazolin-1-sulfoxide
motor activity (open field) [3]: no change
sexual motivation [3]: no change
anxiolytic activity in the elevated plus-maze (Wistar rats [4]; given orally to rats): dose-dependent anxiolytic activity
latency to enter the closed arm (Wistar rats [4]; rats, oral gavage 100 ng/kg, 10 μg/kg, 1 mg/kg, 90 min, 3 minute observation, vs vehicle (FIG. 2a)): increased
time spent in the open arm (Wistar rats [4]; rats, oral gavage 100 ng/kg, 10 μg/kg, 1 mg/kg, 90 min, vs vehicle (FIG. 2b)): significantly increased (p<0.01)
serenic activity, inhibiting offensive aggression ([5]; oral gavage): very effective serenic
flank marking ([5]; oral gavage 100 ng/kg, 10 μg/kg, 1 mg/kg, 90 min, 10 minute test (FIG. 3d)): significantly increased
latency to bite ([5]; oral gavage 100 ng/kg, 10 μg/kg, 1 mg/kg, 90 min, 10 minute test, p<0.01 (FIG. 3a)): significantly increased
number of bites ([5]; oral gavage 100 ng/kg, 10 μg/kg, 1 mg/kg, 90 min, 10 minute test, p<0.01 (FIG. 3c)): decreased
contact time ([5]; oral gavage, 90 min, 10 minute test, highest dose (1 mg/kg) (FIG. 3b)): significantly reduced at the highest dose

CN1C(=O)CN=C(c2ccccc2)c2cc(Cl)ccc21 [diazepam]
number of entries into the open arms (Wistar rats [2]): significantly increase
percentage of time spent in the open arms (Wistar rats [2]): significantly increase

CNCCCN1c2ccccc2CCc2ccccc21 [desipramine]
effect on seed finding (golden hamsters): ineffective

From patent publication US7833998B2, “Oral neurotherapeutic cephalosporin sulfoxide and sulfone-containing compositions” (Revaax Pharmaceuticals, LLC, priority 2003, dated 2010)
